Assay: in vitro
Settings: human, hela cells, % viability

Nc1nc(CN2C(=O)c3ccccc3C2=O)n[nH]1 [CBK266655]
viability at 28.5 h, 10 µM: 105%

COc1ccc(C(=O)NC(c2ccco2)c2cc(Cl)c3cccnc3c2O)cc1 (centres unmarked) [CBK263964]
viability at 28.5 h, 10 µM: 91.9%

N#CCCCN1CCC(Oc2nccnc2OCc2ccc(-c3ccccc3)cc2)CC1 [CBK161566]
viability at 28.5 h, 10 µM: 95.4%

CSCCC(=O)N1CCC2(CCN(Cc3ccccc3)CC2)C1 [CBK136757]
viability at 28.5 h, 10 µM: 101%

O=C(c1ccc([N+](=O)[O-])cc1Cl)N1CCN(Cc2ccccc2)CC1 [CBK261778]
viability at 28.5 h, 10 µM: 103%

CCOC(=O)C1=C(C)NC(=O)NC1c1ccc(-c2cccc([N+](=O)[O-])c2)o1 (centres unmarked) [CBK072102]
viability at 28.5 h, 10 µM: 109%

Cc1ccc(C(C)C)c(OCC(=O)N2CCN(Cc3nc4cc([N+](=O)[O-])ccc4n3C)CC2)c1 [CBK268519]
viability at 28.5 h, 10 µM: 106%

CSCCN1CCN(c2nccnc2OC2CCCCC2)CC1 [CBK082843T]
viability at 28.5 h, 10 µM: 108%

CC(=O)c1ccc(-c2nccnc2NCc2ccc(C(F)(F)F)cc2)s1 [CBK037983]
viability at 28.5 h, 10 µM: 99.2%

O=C(NC(Cc1cnc[nH]1)C(=O)O)c1ccccc1 (centres unmarked) [CBK059018]
viability at 28.5 h, 10 µM: 102%

CN(C)S(=O)(=O)c1ccc(C(=O)Nc2cccc(N3Cc4ccccc4C3)c2)cc1 [CBK266025]
viability at 28.5 h, 10 µM: 98.8%

O=S(=O)(NC(c1c[nH]c2ccccc12)C(Cl)(Cl)Cl)c1ccccc1 (centres unmarked) [CBK263279]
viability at 28.5 h, 10 µM: 91.7%

Cc1cccnc1NC(=O)COc1ccc(Cl)cc1Cl [CBK262154]
viability at 28.5 h, 10 µM: 86.5%

O=C(CC(CN1CCN(Cc2cccnc2)CC1)C(=O)O)Nc1ccc(Cl)cc1 (centres unmarked) [CBK286853]
viability at 28.5 h, 10 µM: 91.5%

Cc1cc(C(=O)NCc2ccc(C(=O)O)cc2)no1 [CBK268108]
viability at 28.5 h, 10 µM: 98.3%

CC(C)N1CCCC2(CCN(C(=O)Cc3c[nH]c(=O)n(C)c3=O)C2)C1=O (centres unmarked) [CBK307115]
viability at 28.5 h, 10 µM: 87.8%

CCCn1nc(C)c(-c2cncn2CCN(C)C2CCCC2)c1C [CBK281790]
viability at 28.5 h, 10 µM: 91.3%

CCCS(=O)(=O)N1CCCC(Cc2ccc(F)cc2F)(C(=O)OCC)C1 (centres unmarked) [CBK307221]
viability at 28.5 h, 10 µM: 85.5%

c1ccc(Nc2nc(-c3cccs3)cn3ccnc23)cc1 [CBK066513]
viability at 28.5 h, 10 µM: 83.7%

c1cc(OCCN2CCCC2)c2cc[nH]c2c1 [CBK083478]
viability at 28.5 h, 10 µM: 101%

Cc1cc(COC(=O)N2CCCC(F)(F)C2)cc(C)n1 [CBK200151]
viability at 28.5 h, 10 µM: 125%

Cn1cc(C2CCCCCN2Cc2cc(Cl)ccc2O)cn1 (centres unmarked) [CBK282941]
viability at 28.5 h, 10 µM: 100%

O[C@H]1[C@H](NCc2ccco2)[C@H]2CO[C@H](O2)[C@@H]1N1CCCCC1 [CBK288825]
viability at 28.5 h, 10 µM: 106%

Cc1nn(-c2ccccc2)c2sc(C(=O)N3CCN(C(=O)c4ccccc4)CC3)cc12 [CBK297554]
viability at 28.5 h, 10 µM: 96.1%

COc1ccc(NC(=O)c2cnc(-c3cccc(C)c3)c(-c3ccco3)c2)cc1 [CBK037491]
viability at 28.5 h, 10 µM: 83.9%

Nc1ncc(-c2cncnc2)nc1NC1CC1 [CBK063869]
viability at 28.5 h, 10 µM: 101%

c1cnc(N2CCCC2)c(OC2CCNC2)n1 (centres unmarked) [CBK115284]
viability at 28.5 h, 10 µM: 98.3%

S=c1nc(-c2ccccc2)n(-c2ccccc2)[nH]1 [CBK288474]
viability at 28.5 h, 10 µM: 103%

O=C(O)C1CC1C(=O)N1CCC2(CC1)OCCc1c2[nH]c2ccccc12 (centres unmarked) [CBK047167]
viability at 28.5 h, 10 µM: 89.2%

O=C(CSc1nc2ccccc2c(=O)n1-c1ccc(F)cc1)Nc1ccc(C(=O)O)cc1 [CBK296140]
viability at 28.5 h, 10 µM: 96%

CS(=O)(=O)N(Cc1ccc(Cl)cc1)c1ccc(C(=O)N2CCC(C(N)=O)CC2)cc1 [CBK265327]
viability at 28.5 h, 10 µM: 89.7%

O=C(Nc1nccc(-c2cc(OCC(F)(F)F)ccc2OCC(F)(F)F)n1)c1cccs1 [CBK005949]
viability at 28.5 h, 10 µM: 95.5%

O=C(NCCC1=CCCCC1)Nc1ccc(F)c(F)c1F [CBK043265]
viability at 28.5 h, 10 µM: 89.3%

Cc1nccn1CCCn1cncc1-c1ccc2c(c1)CCCN2C [CBK282962]
viability at 28.5 h, 10 µM: 93.1%

Cn1ccnc1SCC(=O)Nc1ccc(I)cc1 [CBK057541]
viability at 28.5 h, 10 µM: 85.3%

Cc1ccc(-c2ccccc2)n1-c1ccc(O)c(C(=O)O)c1 [CBK116375]
viability at 28.5 h, 10 µM: 103%

O=C(Nc1sc2c(c1C(=O)N1CCOCC1)CCCC2)c1cccs1 [CBK304649]
viability at 28.5 h, 10 µM: 92.9%

Cc1cccc(C2CCCN(C(=O)Nc3cnn(C)c3)C2)c1 (centres unmarked) [CBK306961]
viability at 28.5 h, 10 µM: 102%

O=C(Cc1cccs1)N1CCC(c2nnc3n2CCCCC3)CC1 [CBK284606]
viability at 28.5 h, 10 µM: 83.1%

COc1ccccc1/C=C1/S/C(=N/Cc2ccccc2)N(Cc2ccccc2)C1=O [CBK262234]
viability at 28.5 h, 10 µM: 99.3%

CCCC/C=C/c1cncc(NCCO)n1 [CBK065419]
viability at 28.5 h, 10 µM: 109%

COc1ccc([C@@]23CC[C@@H](NC(=O)c4ccc5occc5c4)C[C@@H]2N(C)CC3)cc1OC [CBK074253T]
viability at 28.5 h, 10 µM: 99%

N#C/C(=C\c1cn(-c2ccccc2)nc1-c1cccc(S(=O)(=O)N2CCCCCC2)c1)c1nc2ccccc2c(=O)[nH]1 [CBK266347]
viability at 28.5 h, 10 µM: 103%

O=C(COc1ccc(Br)cc1)Nc1ccc(CN2CCCCC2)cc1 [CBK266181]
viability at 28.5 h, 10 µM: 99.5%

Source: paper PMC12040169 (PLOS Biology, 2025)
